Here are results for 2 compounds from US8536351B2, “2-aryl-5-heterocyclyl-cyclohexane-1,3,dione compounds and their use as herbicides” (Syngenta Crop Protection LLC, priority 2007, dated 2013).

Common to all, as to type: in vivo
For assay [1], the system named is Avena fatua (AVEFA). Nature of the assay: Post-emergence activity, glasshouse pot test (100=total damage to plant; 0=no damage to plant). Conditions: 336 h, rate 500 g/ha, evaluated 14 or 15 days after spraying. As to the method:
(§1) Monocotyledonous and dicotyledonous test plants were sown in standard soil in pots. After cultivation for one day (pre-emergence) or after 10 days cultivation (post-emergence) under controlled conditions in a glasshouse, the plants were sprayed with an aqueous spray solution derived from the formulation of the technical active ingredient in 0.6 ml acetone and 45 ml formulation solution containing 10.6% Emulsogen EL (Registry number 61791-12-6), 42.2% N-methyl pyrrolidone, 42.2% dipropylene glycol monomethyl ether (Registry number 34590-94-8) and 0.2% X-77 (Registry number 11097-66-8). The test plants were then grown in a greenhouse under optimum conditions until, 14 or 15 days later for post-emergence and 19, 20 or 21 days for pre-emergence, the test was evaluated (100=total damage to plant; 0=no damage to plant). Alopecurus myosuroides (ALOMY), Avena fatua (AVEFA), Lolium perenne (LOLPE), Setaria faberi (SETFA), Digitaria sanguinalis (DIGSA), Echinochloa crus-galli (ECHCG) Post-Emergence Activity

In assay [2] the test system is Lolium perenne (LOLPE). The assay is described as above. The settings on record: 336 h, rate 500 g/ha, evaluated 14 or 15 days after spraying. On the procedure:
as §1

For assay [3], the system named is Setaria faberi (SETFA). The description is as above. The settings on record: rate 500 g/ha, evaluated 14 or 15 days after spraying. As to the method: as §1
Assay [4] relates to Echinochloa crus-galli (ECHCG). The assay is described as above. The settings on record: rate 500 g/ha, evaluated 14 or 15 days after spraying. On the procedure: as §1
Assay [5] concerns Alopecurus myosuroides (ALOMY). The description is as above. Conditions: 336 h, rate 500 g/ha, evaluated 14 or 15 days after spraying. As to the method:
as §1

Assay [6] concerns Digitaria sanguinalis (DIGSA). Described as above. The settings on record: rate 500 g/ha, evaluated 14 or 15 days after spraying. As to the method:
as §1

Assay [7] relates to Avena fatua (AVEFA). Nature of the assay: Pre-emergence activity, glasshouse pot test (100=total damage to plant; 0=no damage to plant). The settings on record: rate 500 g/ha, evaluated 19, 20 or 21 days after spraying. On the procedure: as §1, with “Pre-Emergence” for “Post-Emergence”
Assay [8] deals with Lolium perenne (LOLPE). The description is as above. The settings on record: rate 500 g/ha, evaluated 19, 20 or 21 days after spraying. On the procedure: as §1, with “Pre-Emergence” for “Post-Emergence”
Assay [9] relates to Setaria faberi (SETFA). Described as above. The settings on record: rate 500 g/ha, evaluated 19, 20 or 21 days after spraying. On the procedure:
as §1, with “Pre-Emergence” for “Post-Emergence”

Assay [10] has as its system Echinochloa crus-galli (ECHCG). The description is as above. The settings on record: rate 500 g/ha, evaluated 19, 20 or 21 days after spraying. On the procedure: as §1, with “Pre-Emergence” for “Post-Emergence”
In assay [11] the test system is Alopecurus myosuroides (ALOMY). Described as above. The settings on record: rate 500 g/ha, evaluated 19, 20 or 21 days after spraying. As to the method:
as §1, with “Pre-Emergence” for “Post-Emergence”

The subject of assay [12] is Digitaria sanguinalis (DIGSA). The assay is described as above. Conditions: rate 500 g/ha, evaluated 19, 20 or 21 days after spraying. As to the method:
as §1, with “Pre-Emergence” for “Post-Emergence”

Molecules are shown by their SMILES.

For the compound `CC(=O)OC1=C(c2c(C)cc(C)cc2C)C(=O)CC(C2CCOC2)C1` (stereo not drawn) [Compound P1, 3-oxo-5-(tetrahydrofuran-3-yl)-2-(2,4,6-trimethylphenyl)cyclohex-1-enyl acetate], the pest or weed control (as a rule, how far the test organism was held down) at 500 g/ha with Avena fatua (AVEFA) [1] turned out to be 20%; in the assay with Lolium perenne (LOLPE) [2], 80%; with Setaria faberi (SETFA) [3] it was 70%; in assay [4] it was 70%; in assay [5], 80%; in assay [6] it was 80%. For the same compound, the pest or weed control at 500 g/ha with Avena fatua (AVEFA) [7] came out at 20%; in the assay with Lolium perenne (LOLPE) [8] it was 70%; in the assay on Setaria faberi (SETFA) [9], 0%; in assay [10], 30%; in assay [11] it was 60%; in assay [12], 60%.
With `Cc1cc(C)c(C2=C(O)CC(C3CCS(=O)(=O)CC3)CC2=O)c(C)c1` (stereo not drawn) [Compound T17], the pest or weed control at 500 g/ha in the assay on Avena fatua (AVEFA) [1] amounted to 20%; in the assay with Lolium perenne (LOLPE) [2] it was 0%; in the assay with Setaria faberi (SETFA) [3], 90%; in assay [4] it was 90%; in [5], 20%; in assay [6], 90%. Also, the pest or weed control at 500 g/ha was found to be 70% in the assay with Avena fatua (AVEFA) [7]; 0% in the assay with Lolium perenne (LOLPE) [8]; 50% in the assay with Setaria faberi (SETFA) [9]; 60% in assay [10]; 20% in assay [11]; 60% in assay [12].
